Measurements: PMC7029871, “Development and validation of a sensitive LC-MS/MS method for the quantitation of IMB-YH-4py5-2H, an antituberculosis candidate, and its application to the pharmacokinetic study” (PLoS ONE, 2020)
Entries after “also recorded” stand apart in the source; their conditions may differ.

Legend:
[1] = Stability of QC samples in rat plasma; assay type: in vitro ADME; details: for %Theoretical, Autosampler: extracted plasma QC; for %Theoretical, Long-term / %Theoretical, 24 h ambient / %Theoretical, freeze-thaw: rat plasma; for %Theoretical, Long-term: 2 weeks at -20°C
Protocol: Six replicates of the QC samples at low, medium and high concentrations subjected to the conditions below were evaluated for the stability of IMB-4py5-2H in rat plasma. Short-term stability was assessed by the analysis of the QCs kept at room temperature for 24 h, which exceeded the routine preparation time of the samples. Long-term stability was determined by assaying the QCs after storage for 2 weeks at −20°C. Freeze–thaw stability was investigated after three freeze (−20°C)–thaw (room temperature) cycles. Post-preparative stability was assessed by analyzing the extracted QC samples kept in autosampler at 4°C for 24 h.

[2] = Metabolic stability assay in human liver microsomes; assay type: in vitro ADME; details: pH 7.4, HLMs 0.1 mg/mL, 37°C, NADPH
Protocol: IMB-YH-4py5-2H was incubated at 37°C for 0, 15, 30, 45, and 60 min in human liver microsomes (HLMs) for the metabolic stability study. The incubation system included 0.1 mg/mL pooled liver microsomes, 100 mM phosphate-buffered saline (PBS, pH 7.4), NADPH regeneration system (the final concentration contained 3.3 mM glucose-6-phosphate, 1.3 mM NADP^+, 0.4 U/mL glucose-6-phosphate dehydrogenase and 3.3 mM MgCl2), and 1 μM IMB-YH-4py5-2H.
(§1) After incubation, the samples were processed as described in “Sample processing”. All experiments were performed in triplicate. The concentration of IMB-YH-4py5-2H was measured using LC-MS/MS analysis.

CYP1A2 = biological target: T1, CYP1A2 (Homo sapiens, UniProt P05177); assay: Metabolism by recombinant human P450 enzyme; assay type: in vitro ADME; details: recombinant CYP1A2 0.05 nmol/mL, 1 μM, 30 min
T1 construct: purchased Corning (Woburn, MA, USA)
T1 sequence (P05177 1-516): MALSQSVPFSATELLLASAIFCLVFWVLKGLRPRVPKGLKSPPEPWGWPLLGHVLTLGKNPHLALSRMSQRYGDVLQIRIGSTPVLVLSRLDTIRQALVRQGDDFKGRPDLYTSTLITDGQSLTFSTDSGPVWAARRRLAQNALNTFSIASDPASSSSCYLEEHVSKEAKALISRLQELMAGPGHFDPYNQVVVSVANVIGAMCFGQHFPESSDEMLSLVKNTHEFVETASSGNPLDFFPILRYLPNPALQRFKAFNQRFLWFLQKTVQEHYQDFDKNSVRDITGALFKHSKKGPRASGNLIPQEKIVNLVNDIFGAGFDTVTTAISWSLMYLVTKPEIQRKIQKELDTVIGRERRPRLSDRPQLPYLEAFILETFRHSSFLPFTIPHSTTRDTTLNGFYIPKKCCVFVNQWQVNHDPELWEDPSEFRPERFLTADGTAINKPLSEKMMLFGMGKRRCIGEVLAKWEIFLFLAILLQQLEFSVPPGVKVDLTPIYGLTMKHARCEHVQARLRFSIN
Protocol: (§2) In addition, to characterize the enzymes that may be involved in microsomal metabolism, IMB-YH-4py5-2H was incubated at 37°C for 30 min with different recombinant human P450 enzymes, i.e., CYP1A2, CYP2A6, CYP2B6, CYP2C8, CYP2C9, CYP2C19, CYP2D6, CYP2E1, CYP3A4 and CYP3A5. The incubation system included CYP isoenzyme at a final concentration of 0.05 nmol/mL, 100 mM PBS (pH 7.4) or 100 mmol/L Tris buffer (pH 7.5, Tris buffer was used in the CYP2C9 and CYP2A6 reaction systems and PBS was used for the other enzymes), NADPH regeneration system, and 1 μM IMB-YH-4py5-2H.
as §1

CYP2A6 = biological target: T2, CYP2A6 (Homo sapiens, UniProt P11509); assay: Metabolism by recombinant human P450 enzyme; assay type: in vitro ADME; details: recombinant CYP2A6 0.05 nmol/mL, 1 μM, 30 min
T2 construct: purchased Corning (Woburn, MA, USA)
T2 sequence (P11509 1-494): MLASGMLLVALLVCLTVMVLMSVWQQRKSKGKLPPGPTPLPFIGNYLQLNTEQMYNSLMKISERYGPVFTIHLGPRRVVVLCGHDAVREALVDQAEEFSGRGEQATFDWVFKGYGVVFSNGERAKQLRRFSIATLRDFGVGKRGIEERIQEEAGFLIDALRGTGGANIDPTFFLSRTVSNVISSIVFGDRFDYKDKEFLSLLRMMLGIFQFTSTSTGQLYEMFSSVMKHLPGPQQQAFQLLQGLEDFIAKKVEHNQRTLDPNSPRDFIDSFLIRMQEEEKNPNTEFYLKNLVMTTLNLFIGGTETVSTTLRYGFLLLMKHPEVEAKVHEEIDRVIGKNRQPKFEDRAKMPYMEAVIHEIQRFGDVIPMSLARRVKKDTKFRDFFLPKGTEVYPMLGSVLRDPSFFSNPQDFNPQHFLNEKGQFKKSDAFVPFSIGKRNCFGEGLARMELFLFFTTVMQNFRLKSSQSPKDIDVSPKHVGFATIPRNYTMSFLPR
Protocol: as §2, §1

CYP2B6 = biological target: T3, CYP2B6 (Homo sapiens, UniProt P20813); assay: Metabolism by recombinant human P450 enzyme; assay type: in vitro ADME; details: recombinant CYP2B6 0.05 nmol/mL, 1 μM, 30 min
T3 construct: purchased Corning (Woburn, MA, USA)
T3 sequence (P20813 1-491): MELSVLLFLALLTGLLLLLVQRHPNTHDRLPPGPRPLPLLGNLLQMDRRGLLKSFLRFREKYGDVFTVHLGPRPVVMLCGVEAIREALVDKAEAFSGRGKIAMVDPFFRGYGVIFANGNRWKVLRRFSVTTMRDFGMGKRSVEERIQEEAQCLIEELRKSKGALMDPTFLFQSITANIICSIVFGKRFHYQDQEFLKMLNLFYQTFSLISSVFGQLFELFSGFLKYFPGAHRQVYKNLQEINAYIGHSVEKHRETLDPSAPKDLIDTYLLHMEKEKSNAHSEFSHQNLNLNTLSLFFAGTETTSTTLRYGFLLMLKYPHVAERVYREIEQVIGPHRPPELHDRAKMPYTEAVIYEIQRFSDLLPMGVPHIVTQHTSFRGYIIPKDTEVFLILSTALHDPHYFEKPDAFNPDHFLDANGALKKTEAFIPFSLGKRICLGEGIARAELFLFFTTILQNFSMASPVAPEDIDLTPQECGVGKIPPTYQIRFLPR
Protocol: as §2, §1

[3] = compared with YH-8; method and reference not given; cited from earlier work

## CN(C)C(=O)/C=C/C(=O)c1ccc(-c2ccncc2)cc1.Cl [IMB-YH-4py5-2H, (E)-N,N-dimethyl-4-oxo-4-(4-(pyridin-4-yl)phenyl)but-2-enamide hydrochloride]
[1]; autosampler 4°C 24 h, nominal 2.5 ng/mL
  %Theoretical, Autosampler: 100.11 ± 1.20%
[1]; autosampler 4°C 24 h, nominal 20 ng/mL
  %Theoretical, Autosampler: 103.26 ± 6.07%
[1]; autosampler 4°C 24 h, nominal 80 ng/mL
  %Theoretical, Autosampler: 97.85 ± 4.96%
[1]; nominal 2.5 ng/mL
  %Theoretical, Long-term: 92.33 ± 4.21%
[1]; nominal 20 ng/mL
  %Theoretical, Long-term: 91.65 ± 3.91%
[1]; nominal 80 ng/mL
  %Theoretical, Long-term: 94.98 ± 7.26%
[1]; room temperature 24 h, nominal 2.5 ng/mL
  %Theoretical, 24 h ambient: 94.35 ± 3.65%
[1]; room temperature 24 h, nominal 20 ng/mL
  %Theoretical, 24 h ambient: 91.96± 5.79%
[1]; room temperature 24 h, nominal 80 ng/mL
  %Theoretical, 24 h ambient: 103.77 ±2.51%
[1]; three freeze-thaw cycles, nominal 2.5 ng/mL
  %Theoretical, freeze-thaw: 90.11 ± 6.19%
[1]; three freeze-thaw cycles, nominal 20 ng/mL
  %Theoretical, freeze-thaw: 88.79 ± 3.27%
[1]; three freeze-thaw cycles, nominal 80 ng/mL
  %Theoretical, freeze-thaw: 94.17 ± 5.10%
[1]; room temperature 24 h, -20°C 2 weeks, three freeze-thaw cycles, autosampler 4°C 24 h
  stability in rat plasma: stable
[2]
  half-life at 1 μM: < 15 min
CYP1A2
  metabolism by CYP isozyme: high metabolic activity
CYP2A6
  metabolism by CYP isozyme: high metabolic activity
CYP2B6
  metabolism by CYP isozyme: high metabolic activity
[3]
  water solubility: better water solubility; also recorded: improved water solubility
